The record followed here is patent US9629822B2, “Flavonoid based antiviral targets” (UNIVERSITY OF CENTRAL FLORIDA RESEARCH FOUNDATION, INC., priority 2012, dated 2017).

Usually EC50 stands for the concentration at which the effect is half-maximal. Lower therefore signals greater potency. For orientation: IC50 means the concentration that gives 50% inhibition. For orientation: inhibition means the change of the read-out against control, counted positive when it falls. Usually melting point stands for the temperature of the solid-liquid transition.

Structures are written as SMILES. Where two headings read alike, the source gives them in different places.

For one data set, the target named is T1, US28 receptor (Human cytomegalovirus, UniProt P69332).
T1 construct: expressed in transfected cells; host or cells: HEK 293T cells, transiently transfected
T1 sequence (P69332 whole entry): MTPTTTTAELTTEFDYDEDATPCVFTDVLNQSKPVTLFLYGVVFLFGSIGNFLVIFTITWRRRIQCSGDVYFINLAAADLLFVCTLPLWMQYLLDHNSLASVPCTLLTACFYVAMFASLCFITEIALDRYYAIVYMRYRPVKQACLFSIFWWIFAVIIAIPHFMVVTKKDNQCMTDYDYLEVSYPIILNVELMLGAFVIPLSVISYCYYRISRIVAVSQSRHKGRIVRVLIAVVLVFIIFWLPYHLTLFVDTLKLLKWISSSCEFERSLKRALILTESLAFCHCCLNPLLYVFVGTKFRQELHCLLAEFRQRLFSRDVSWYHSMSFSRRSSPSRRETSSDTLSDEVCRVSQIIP
Briefly: PathDetect trans Elk1 luciferase reporter gene assay in US28-transfected 293T HEK cells. The following applies: for EC50: 293T HEK cells transiently expressing US28, Elk1 reporter; for type of activity on the US28 receptor (agonist / inverse agonist / none), in words: Elk1 reporter, US28-transfected HEK cells; for Emax: read-out: Efficacy(%), maximum intrinsic activity from dose-response curve. It counts as cell-based, Human Cytomegalovirus (HCMV). From the text: Having generated a homologous series of chalcones and flavones, their ability to interact with the US28 receptor in human embryonic kidney (HEK) cells was investigated using an Elk-1 gene reporter assay (FIG. 2). HEK cells were transfected with either an empty vector (i.e., mock cells) or with a vector carrying US 28. These matched HEK cells provided a means to evaluate off-target effects as well as innate drug toxicity. As many of the flavonoid drugs were not water-soluble, all drug stock solutions were made in 100% dimethylsulfoxide (DMSO). The final DMSO concentration for each cell-based experiment, however, was 1% DMSO. To account for the presence of DMSO, 1% DMSO controls were run in parallel. […] values of the homologous series were also determined in Chinese hamster ovary (CHO) cells in order to assess the relative toxicities of each member of the series in a different cell line (see Table 1).
Interaction with the US28 receptor was measured by a decrease in luminescence using a firefly (Photinus pyralis) luciferase-based PathDetect Elk1 gene reporter assay (FIG. 2).^23,24 This assay assessed the modulation of US28-mediated activation of mitogen-activated protein kinase (MAPK) signaling pathways (results are shown in Table 1). […] Such compounds which reduce MAPK signaling will have direct utility in the treatment of proliferative disorders including but not limited cancer.
After transfection the US28 is expressed and activates MAPK. The MAPK phosphorylates the activator domain of the GAL4dbd/Elk1 fusion protein, and causes its dimerization. The dimer then binds to the GAL4 UAS region of the reporter gene and allows for luciferase transcription. The luciferase mRNA is then translated and the luciferase protein is detected via luminescence by the use of the Bright-Glo reagent.
The efficacy of each compound on the US28 receptor was investigated in luciferase based reporter gene assay PathDetect trans Elk1 (Agilent, Stratagene)^23 as described previously.^13 Briefly, the human embryonic kidney (HEK) 293T cells were transiently-transfected with 0.1 μg Elk1, 5 μg Luc, and 5 μg of US28 vector or empty pcDNA3 vector (mock cells). Five hours after transfection, the cells were washed with DMEM containing 1% FBS, harvested, seeded in a white half-area 96-well plate (20,000 cells/well) and incubated with the indicated concentrations of test compounds. The incubation buffer consisted of DMEM, 1% FBS, 2 mM L-glutamine, 1% penicillin-streptomycin and 1% DMSO. The cells were incubated at 37° C. in the humid atmosphere with 5% CO2 for an additional 20-24 hours. The luciferase substrate BrightGlo (Promega) was used according to the manufacturer's instruction. The luminescence intensity was acquired using microplate reader Victor3V (Perkin-Elmer). The basal luminescence of mock transfected cells was approximately 500 RLU and the basal luminescence of US28-transfected cells was 4-5-fold higher (2000-2500 RLU). As the inhibitors gave differential responses in terms of their ability to reduce US 28 mediated signaling, their relative EC50 values were determined by dosing the US-28 transfected HEK cells with increasing concentrations of each compound. In this case, the EC50 value is the concentration of the compound needed to provoke a response halfway between the compound's maximal response (change in luminescence) and the no-compound control in the same US-28 transfected cell line. A plot of relative luminescence versus log of the compound concentration provided a dose-response curve from which the % efficacy was derived via non-linear regression methods using the algorithms in PRISM 5.0 (GraphPad Software, San Diego, Calif.).
For orientation: Reporter assays use an easily measured gene product as a stand-in for the process of interest.

A further data set has as its system CHO cells. As to the kind of experiment: CHO cell toxicity, MTS assay, 48 h. The format is cell-based, Chinese hamster. Conditions: Cricetulus griseus, CHO, 37° C., MTS reagent, read-out: CHO 48 h IC50 value. Here is the method: In each case, the chalcone system 8 was more toxic than the corresponding ring-closed system, 9.
The CHO assay was conducted to assess the general toxicity of each flavonoid drug. Briefly, cell growth was assayed in sterile 96-well microtiter plates (Costar 3599, Corning, N.Y., USA) in the presence of each drug. Experiments were conducted in triplicate. CHO cells were plated at 10,000 cells/mL. Drug solutions were prepared in 100% DMSO and dosed so that the final DMSO concentration was <1%. For example, 1 μL of drug solution was added to the CHO cells plated in each well in 100 μL of media. Drug additions occurred after an initial overnight incubation of CHO cells in each well. After drug was added, the cells were incubated in 5% CO2 for 48 h at 37° C. The MTS reagent (Promega Cell Titer 96 Aqueous non-radioactive cell proliferation reagent) was added (20 μL) and the CHO cells were incubated for an additional 4h and then absorbance at 490 nm was measured on a BioTek Synergy MX plate reader. […] IC50 values were determined from the corresponding plot of relative absorbance at 490 nm vs drug concentration.
(Tetrazolium dyes change colour on reduction, which living cells bring about.)

Data set [1] can be described thus: TZMbI assay for cell safety (cell viability and growth, CytoTox Glo). The following applies: human, TZMbI cells, read-out: % decrease in viability compared to 0.1% DMSO vehicle based on viable cell luminescence. How it is done:
Assays were performed below in accordance with the procedures set forth in The Journal of Immunology, 2006, 176, pp. 6900-905; AIDS Research and Human Retroviruses, 2004, 20:11, pp. 1157-1665.^32,33 TZMbI assays for cell safety were performed to identify potential anti-viral compounds. TZMbI assays for cell safety were performed to identify potential anti-viral compounds per the methods.

Another data set has as its system HIV-1 BaL. Briefly: Anti-HIV assay (luciferase, HIV-1 BaL infection). It counts as cell-based. Here is the method:
Assays were performed below in accordance with the procedures set forth in The Journal of Immunology, 2006, 176, pp. 6900-905; AIDS Research and Human Retroviruses, 2004, 20:11, pp. 1157-1665.^32,33 Cells were treated with 2 ng/mL p24 of HIV-1 BaL administered; MOI approx 0.02 (see refs 32, 33). Cells were treated with 2 ng/mL p24 of HIV-1 BaL administered; MOI approx 0.02 (see refs 32, 33).

Setting [2] is: EC50 (μM), NE = no effect when tested at 10 μM of compound.
[3] abbreviates: 10 μM, Experiment 1B, 2 ng/mL p24 HIV-1 BaL.
Setting [4] is: Human immunodeficiency virus 1, BAL, 2.5 μM, Experiment 2B.
[5] abbreviates: Human immunodeficiency virus 1, BAL, 5 μM, Experiment 2B.
The mark [6] stands for this setting: Human immunodeficiency virus 1, BAL, 10 μM, Experiment 1B, 2 ng/mL p24 HIV-1 BaL.
Where [7] appears, read: Human immunodeficiency virus 1, BAL, 10 μM, Experiment 2B.
The mark [8] stands for this setting: Human immunodeficiency virus 1, BAL, 20 μM, Experiment 2B.

In the case of `CCOc1ccc(Br)cc1-c1oc2ccccc2c(=O)c1O` [Compound 9c, 2-(5-Bromo-2-ethoxyphenyl)-3-hydroxy-4H-chromen-4-one], the melting point lay in the range of 149 to 155 °C. This compound showed an EC50 at US28 receptor (setting [2]) of 0.8 µM. For the same compound, the “type of activity on the US28 receptor (agonist / inverse agonist / none), in words” value on US28 receptor was “inhibited US28 activity”. The midpoint of the response on US28 receptor (pEC50 ± SEM), the EC50, lay at 0.832 µM. Also, the IC50 with CHO cells amounted to 13.5 ± 1.3 µM. For the same compound, in data set [1] (Experiment 2A), the cytotoxicity at 2.5 μM is -6.23%, the cytotoxicity at 5 μM was -0.19%, the cytotoxicity at 10 μM worked out at 0.1% and the cytotoxicity at 20 μM worked out at 14.8%. Also, in data set [1] (Experiment 1A), the cytotoxicity at 10 μM was -8.9%. Moreover, the cytotoxicity at 40 μM in data set [1] (40 μM, Experiment 2A) came out at 64.2%. In addition, the “RLU (relative luciferase units)” value in the data set on HIV-1 BaL (2.5 μM, Experiment 2B) was determined as 30.81 RLU. Besides, the “RLU (relative luciferase units)” value with HIV-1 BaL (5 μM, Experiment 2B) is recorded as 33.63 RLU. For the same compound, the “RLU (relative luciferase units)” value with HIV-1 BaL (setting [3]) worked out at 727.6 RLU. Also, the “RLU (relative luciferase units)” value in the data set with HIV-1 BaL (10 μM, Experiment 2B) was 49.29 RLU. Further, the “RLU (relative luciferase units)” value in the data set on HIV-1 BaL (20 μM, Experiment 2B) is given as 69.09 RLU. The “RLU (relative luciferase units)” value with HIV-1 BaL (40 μM, Experiment 2B) was 88.45 RLU. Also, the inhibition at 2.5 µM in the data set with HIV-1 BaL (setting [4]) is -6.23%. For the same compound, the inhibition at 5 µM with HIV-1 BaL (setting [5]) was -0.19%. In addition, the inhibition at 10 µM in the data set with HIV-1 BaL (setting [6]) is 22.3%. For the same compound, the inhibition at 10 µM in the data set with HIV-1 BaL (setting [7]) came to 0.1%. Besides, the inhibition at 20 µM with HIV-1 BaL (setting [8]) was found to be 14.8%. For the same compound, the inhibition at 40 µM with HIV-1 BaL (Human immunodeficiency virus 1, BAL, 40 μM, Experiment 2B) worked out at 64.2%.

`COc1ccc(Cl)cc1/C=C/C(=O)c1ccccc1O` [Compound 8h, (E)-3-(5-chloro-2-methoxyphenyl)-1-(2-hydroxyphenyl)prop-2-en-1-one] had a melting point of 81 to 82 °C. For the same compound, at US28 receptor (setting [2]), it took 7.8 µM to reach a half-maximal effect (EC50). The “Efficacy(%)” value on US28 receptor (maximum intrinsic activity from dose-response curve, negative = inverse agonism) is about 58%. Also, at US28 receptor (negative = inverse agonism), the Emax was about 58%. Further, the IC50 with CHO cells stood at 8.4 ± 0.6 µM. Also, in data set [1] (Experiment 1A), the cytotoxicity at 10 μM amounted to 98.9%. Moreover, in the data set on HIV-1 BaL (setting [3]), the “RLU (relative luciferase units)” value is listed as 33.8 RLU. Besides, in the data set with HIV-1 BaL (setting [6]), the inhibition at 10 µM turned out to be 96.4%.

Take `CCOc1ccc(Cl)cc1-c1oc2ccccc2c(=O)c1O` [Compound 9i, 2-(5-chloro-2-ethoxyphenyl)-3-hydroxy-4H-chromen-4-one]: the melting point lay within 156 to 159 °C. In addition, the “type of activity on the US28 receptor (agonist / inverse agonist / none), in words” value at US28 receptor was “inhibited US28 activity”. Moreover, on US28 receptor (pEC50 ± SEM), the EC50 is 0.309 µM. Further, the Emax on US28 receptor (negative = inverse agonism) is -41%. Also, the IC50 in the data set with CHO cells was over 100 µM. Further, in data set [1] (1.25 μM, Experiment 2A), the cytotoxicity at 1.25 μM came to 10.8%. Moreover, in data set [1] (Experiment 2A), the cytotoxicity at 2.5 μM turned out to be 6.19%, the cytotoxicity at 5 μM amounted to 10.7%, the cytotoxicity at 10 μM was 18.7% and the cytotoxicity at 20 μM was 21.6%. In addition, the cytotoxicity at 10 μM in data set [1] (Experiment 1A) turned out to be 21.8%. In addition, the “RLU (relative luciferase units)” value with HIV-1 BaL (1.25 μM, Experiment 2B) was 254.23 RLU. In addition, the “RLU (relative luciferase units)” value in the data set with HIV-1 BaL (2.5 μM, Experiment 2B) was determined as 238.44 RLU. For the same compound, in the data set on HIV-1 BaL (5 μM, Experiment 2B), the “RLU (relative luciferase units)” value amounted to 204.06 RLU. Also, the “RLU (relative luciferase units)” value in the data set on HIV-1 BaL (setting [3]) turned out to be 361.0 RLU. In addition, in the data set with HIV-1 BaL (10 μM, Experiment 2B), the “RLU (relative luciferase units)” value turned out to be 159.94 RLU. Also, the “RLU (relative luciferase units)” value with HIV-1 BaL (20 μM, Experiment 2B) stood at 81.12 RLU. For the same compound, in the data set with HIV-1 BaL (Human immunodeficiency virus 1, BAL, 1.25 μM, Experiment 2B), the inhibition at 1.25 µM was found to be 2.53%. The inhibition at 2.5 µM in the data set on HIV-1 BaL (setting [4]) was determined as 8.25%. The inhibition at 5 µM in the data set on HIV-1 BaL (setting [5]) is 26.1%. Further, in the data set on HIV-1 BaL (setting [6]), the inhibition at 10 µM was 61.4%. Also, in the data set with HIV-1 BaL (setting [7]), the inhibition at 10 µM turned out to be 41.5%. Also, the inhibition at 20 µM in the data set on HIV-1 BaL (setting [8]) came to 74.6%.
